In patent US20260174786A1, “A NITROGEN-CONTAINING SPIROCYCLIC COMPOUND, PHARMACEUTICAL COMPOSITION AND USE THEREOF” (Prime Gene Therapeutics Co., Ltd., priority 2022, published 2026):

Tests used:
[1] = Stability assessment of compounds at room temperature under 92.5% humidity (LC-MS); assay type: physicochemical; settings: 92.5% humidity (open), after 5 days
Protocol: Taking the compound of Example 21 and KM-001-E1 in WO2021154966A1 as examples, the stability thereof was compared:
Compound of Example 21 and KM-001-E1 were accurately weighed and placed in penicillin bottles, and placed at room temperature under 92.5% humidity (open) conditions for 5-10 days to investigate the stability of the compounds.
• instrument: Thermo U3000-ISQEC • column: Xtimate UHPLC C18 1.8 μm 4.6*50 mm • Column temperature: 35° C. • wavelength: 210 nm, 254 nm • mobile phase A: 0.05% formic acid aqueous solution; mobile phase B: 0.05% formic acid acetonitrile; gradient: 30% B 0-1.2 min, 95% B 1.2-3.3 min, 30% B 3.3-4.5 min;
Analyzing the degradation impurities of each compound under 92.5% humidity conditions using LC-MS: The main impurities in Example 21 had m/z 427.17, with a retention time of 2.55 minutes. After being left for 10 days, the peak area proportion was only 0.3%; The main impurities in KM-001-E1 has m/z=431.14 and m/z=415.16, with retention times of 2.31 minutes and 2.64 minutes, respectively. […] Based on LC-MS and NMR data analysis, it can be inferred that the main impurities produced in Example 21 are ketones, while the main impurities produced in KM-001-E1 are aldehydes and carboxylic acids.

[2] = molecular target: T1, hTRPV3 (Homo sapiens, UniProt Q8NET8); assay: Whole cell patch clamp inhibition rate test on HEK-293 cells instantaneously expressing TRPV3; assay type: cell-based; settings: HEK293; hTRPV3, single concentration 0.3 μM
T1 construct: expressed in transfected cells; host or cells: HEK-293
T1 sequence (Q8NET8 1-790): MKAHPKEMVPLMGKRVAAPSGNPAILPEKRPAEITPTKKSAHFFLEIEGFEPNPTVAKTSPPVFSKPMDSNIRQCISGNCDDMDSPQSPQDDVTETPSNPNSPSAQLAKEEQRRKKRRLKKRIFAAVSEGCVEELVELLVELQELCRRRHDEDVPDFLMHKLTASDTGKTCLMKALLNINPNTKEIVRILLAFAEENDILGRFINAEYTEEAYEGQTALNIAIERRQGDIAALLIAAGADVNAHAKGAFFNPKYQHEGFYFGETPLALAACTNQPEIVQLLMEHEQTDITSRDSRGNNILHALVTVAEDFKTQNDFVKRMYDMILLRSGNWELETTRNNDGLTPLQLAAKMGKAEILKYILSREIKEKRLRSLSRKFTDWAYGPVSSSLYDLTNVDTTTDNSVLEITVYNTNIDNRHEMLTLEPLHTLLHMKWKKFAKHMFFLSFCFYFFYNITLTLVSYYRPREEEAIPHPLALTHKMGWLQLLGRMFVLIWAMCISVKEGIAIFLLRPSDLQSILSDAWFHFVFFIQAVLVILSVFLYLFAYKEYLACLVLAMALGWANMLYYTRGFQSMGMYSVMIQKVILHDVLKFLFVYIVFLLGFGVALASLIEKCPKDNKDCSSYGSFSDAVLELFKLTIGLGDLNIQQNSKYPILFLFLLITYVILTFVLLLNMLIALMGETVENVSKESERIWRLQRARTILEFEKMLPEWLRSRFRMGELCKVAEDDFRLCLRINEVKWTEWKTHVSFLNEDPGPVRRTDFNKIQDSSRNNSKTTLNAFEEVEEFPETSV
Outline: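 HEK-293 cells transiently transfected with TRPV3, recorded next-but-one day by whole-cell patch clamp at room temperature: holding −80 mV, ramp −100 to 100 mV over 100 ms every 5 s, peak current monitored. Ascending concentrations perfused, 5 min each; each cell its own control, at least two cells per concentration.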

Row | SMILES | peak area proportion of main impurity (m/z=415.16) [1] [%] | peak area proportion of main impurity (m/z=431.14) [1] [%] | inhibition at 0.3 µM [2] [%]
1 | O=C(c1ccc(F)cn1)N1CC[C@H](c2ccc(-c3ccccc3C3CC3)cc2CO)C1 [KM-001-E1] | 2.43 | 2.48 | –
2 | CC(C)c1ccccc1S(=O)(=O)c1ccc2c(c1)C(O)CC21CCN(C(=O)c2ccc(F)cn2)C1 (stereo not shown) [Example 108, (5-fluoropyridin-2-yl)(3-hydroxy-5-((2-isopropylphenyl)sulfonyl)-2,3-dihydrospiro[indene-1,3′-pyrrolidine]-1′-yl) ketone] | – | – | < 25
3 | O=C(c1cccc(C2CC2)n1)N1CC[C@]2(C[C@H](O)c3cc(-c4ccccc4C4CC4)ccc32)C1 [Example 40, ((1R,3S)-5-(2-cyclopropylphenyl)-3-hydroxy-2,3-dihydrospiro[indene-1,3′-pyrrolidine]-1′-yl)(6-cyclopropylpyridin-2-yl) ketone] | – | – | < 25
